What all share (assay type): in vivo
The subject of test [1] is lambsquarters (Chenopodium album). Briefly: Postemergence herbicidal activity in sugar beet, lambsquarters. Also on record: unit not given here. The following applies: sugar beet test, visual rating after 21 d, probit analysis, dose to kill or control 80 percent. How it is done:
(§1) Seeds of sugar beet and the desired weed species were planted in Sun Gro MetroMix® 360 planting mixture, which typically has a pH of 6.0 to 6.8 and an organic matter content of about 30 percent, in plastic pots with a surface area of 95 cm^2. When required to ensure good germination and healthy plants, a fungicide treatment and/or other chemical or physical treatment was applied. The plants were grown for 15-28 d in a greenhouse with an approximate 15-h photoperiod which was maintained at about 23-29° C. during the day and 22-28° C. during the night. Nutrients and water were added on a regular basis and supplemental lighting was provided with overhead metal halide 1000-Watt lamps as necessary. The sugar beet plants were utilized for testing when they reached the third or fourth true leaf stage. The weed species were utilized at the fourth true leaf stage.
(§2) A weighed amount, determined by the highest rate to be tested, of each test compound was dissolved in 4 mL of a 97:3 v/v mixture of acetone and DMSO to obtain concentrated stock solutions. […] The concentrated stock solutions obtained were diluted with 20 mL of an aqueous mixture containing acetone, water and Agri-Dex crop oil concentrate, in a 16.7:82.1:1.25 v/v ratio to obtain spray solutions containing the highest application rates. Additional application rates were obtained by serial dilution of 12 mL of the high rate solution into a solution containing 2 mL of 97:3 v/v mixture of acetone and DMSO and 10 mL of an aqueous mixture containing acetone, water and Agri-Dex crop oil concentrate, in a 16.7:82.1:1.25 v/v ratio to obtain ½×, ¼×, ⅛× and 1/16× rates of the high rate. Compound requirements are based upon a 12 mL application volume at a rate of 187 L/ha. Formulated compounds were applied to the plant material with an overhead Mandel track sprayer equipped with 8002E nozzles calibrated to deliver 187 L/ha over an application area of 0.503 m^2 at a spray height of 18 inches (43 cm) above the average plant canopy height. Control plants were sprayed in the same manner with the solvent blank.
(§3) The treated plants and control plants were placed in a greenhouse as described above and watered by sub-irrigation to prevent wash-off of the test compounds. After 21 d, the condition of the test plants as compared with that of the untreated plants was determined visually and scored on a scale of 0 to 100 percent where 0 corresponds to no injury and 100 corresponds to complete kill.
(§4) By applying the well-accepted probit analysis as described by J. Berkson in Journal of the American Statistical Society 1953, 48, 565, and by D. Finney in “Probit Analysis” Cambridge University Press (1952), the above data can be used to calculate GR20 and GR80 values, which are defined as growth reduction factors that correspond to the effective dose of herbicide required to kill or control 20 percent or 80 percent, respectively, of a target plant.

In test [2] the test system is purple deadnettle (Lamium purpureum). Briefly: Postemergence herbicidal activity in sugar beet, purple deadnettle. The arrangement: unit not given here. The following applies: sugar beet test, visual rating after 21 d, probit analysis, dose to kill or control 80 percent. How it is done: as §1, §2
The treated plants and control plants were placed in a greenhouse as described above and watered by sub-irrigation to prevent wash-off of the test compounds. After 21 d, the condition of the test plants as compared with that of the untreated plants was determined visually and scored on a scale of 0 to 100 percent where 0 corresponds to no injury and 100 corresponds to complete kill. […]

The subject of test [3] is sugar beet (Beta vulgaris). Briefly: Postemergence herbicidal activity in sugar beet, crop. The arrangement: unit not given here. As to conditions: visual rating after 21 d, probit analysis, dose to kill or control 20 percent. How it is done: as §1, §2, §3, §4
In a further test the test system is corn (Zea mays). The experiment in a line: General postemergence herbicidal activity, corn. The following applies: post-emergence, 336 h, 70 g ai/ha, postemergence, after 14 d, 0 = no injury, 100 = complete kill, read-out: ZEAMX % Visual Injury. In a few lines:
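Greenhouse plants at first to second true leaf stage sprayed overhead at 187 L/ha in acetone/DMSO with crop oil concentrate and surfactant, at a high rate plus ½× to 1/16× serial dilutions. Injury rated visually after 14 d against solvent-blank controls, 0 (none) to 100% (complete kill).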

Test [4] deals with purple deadnettle (Lamium purpureum). The experiment in a line: Postemergence herbicidal activity in oilseed rape (canola), purple deadnettle. The arrangement: unit not given here. The following applies: oilseed rape (canola) test, visual rating after 21 d, probit analysis, dose to kill or control 80 percent. The protocol:
as §1, with “oilseed rape (canola)” for “sugar beet”
as §2, §3, §4

Experimental findings from patent US20130324412A1, “N-ALKOXYAMIDES OF 6-(SUBSTITUTED PHENYL)-4-AMINOPICOLINATES AND 2-(SUBSTITUTED PHENYL)-6-AMINO-4-PYRIMIDINECARBOXYLATES AND THEIR USE AS SELECTIVE HERBICIDES FOR CROPS” (DOW AGROSCIENCES LLC, priority 2009, published 2013) are described below.

As to `CONC(=O)c1nc(-c2ccc(Cl)c(OC)c2F)cc(N)c1Cl` [Compound 2, 4-Amino-3-chloro-6-(4-chloro-2-fluoro-3-methoxyphenyl)-N-methoxypicolinamide], the “CHEAL GR80” value in test [1] is recorded as 21.5. Besides, the “LAMPU GR80” value in test [2] and in test [4] was under 4.38 each time. For the same compound, the “BEAVA GR20” value in test [3] is recorded as over 35. In addition, the plant injury at 70 g/ha in the test with corn (Zea mays) was 10%.
Regarding `COc1c(Cl)ccc(-c2cc(N)c(Cl)c(C(=O)NOCC(C)C)n2)c1F` [Compound 1, 4-amino-3-chloro-6-(4-chloro-2-fluoro-3-methoxyphenyl)-N-(2-methylpropoxy)picolinamide], in the test on corn (Zea mays), the plant injury at 70 g/ha stood at 0%. Moreover, the “LAMPU GR80” value in test [4] is given as under 4.38.
